Experimental data taken from ChEMBL document CHEMBL3739292, “Synthesis and Biological Evaluation of Polar Functionalities Containing Nitrodihydroimidazooxazoles as Anti-TB Agents” (ACS Med Chem Lett, 2015).
Values after ≈ are worked out from the molar mass of the structure shown.

Assays:
[1] = tested on: Mycobacterium tuberculosis; assay: Antimicrobial activity against Mycobacterium tuberculosis H37Rv ATCC 27294 after 7 days by resazurin microtiter assay; type: functional; details: H37Rv ATCC 27294, 168 h
[2] = tested on: Mycobacterium tuberculosis; assay: Antimicrobial activity against nonreplicating Mycobacterium tuberculosis 18b by resazurin microtiter assay; type: functional
[3] = Cytotoxicity against human HepG2 cells after 24 hrs by MTT assay; type: cell-based
[4] = Aqueous solubility of compound at pH7 for 4 hrs by HPLC analysis; type: physicochemical; details: aqueous solution, pH 7
[5] = Selectivity index, ratio of CC50 for human HepG2 cells to MIC for Mycobacterium tuberculosis H37Rv ATCC 27294; type: toxicity, cell-based; details: read-out: Selectivity Index
[6] = Solubility of compound in phosphate buffer solution at pH 7.4 after 4 hrs by HPLC analysis; type: physicochemical
[7] = Solubility of compound in simulated gastric fluid at pH 1.2 after 4 hrs by HPLC analysis; type: ADME
[8] = Solubility of compound in simulated intestinal fluid at pH 6.8 after 4 hrs by HPLC analysis; type: ADME
[9] = Metabolic stability in rat liver microsomes assessed as compound remaining after 30 mins by LC-MS/MS analysis; type: ADME; details: read-out: Stability
[10] = Cmax in Balb/c mouse at 5 mg/kg, po by LC-MS/MS analysis; type: ADME, organism-based; design: dose 5 mg/kg, route oral; details: in vivo
[11] = (§1) AUC (0 to t) in Balb/c mouse at 5 mg/kg, po by LC-MS/MS analysis; type: ADME, organism-based; details: Balb/c, in vivo
[12] = Tmax in Balb/c mouse at 5 mg/kg, po by LC-MS/MS analysis; type: ADME, organism-based; details: in vivo
[13] = (§2) Half life in Balb/c mouse at 5 mg/kg, po by LC-MS/MS analysis; type: ADME, organism-based; details: Balb/c, in vivo
Mus musculus [14] = assay: Volume of distribution in Balb/c mouse at 5 mg/kg, po by LC-MS/MS analysis; type: ADME, organism-based; details: in vivo
[15] = Clearance in Balb/c mouse at 5 mg/kg, po by LC-MS/MS analysis; type: ADME, organism-based; details: in vivo
[16] = tested on: Mycobacterium tuberculosis; assay: Antitubercular activity against Mycobacterium tuberculosis H37Rv infected in Balb/c mouse assessed as decrease in bacterial load at 25 mg/kg, po once daily for 5 days (reference value: 1.61 LogCFU ); type: functional
Mus musculus [17] = assay: Toxicity in Balb/c mouse at 25 mg/kg, po once daily for 5 days; type: organism-based; details: in vivo, 120 h
Mus musculus [18] = assay: Toxicity in Balb/c mouse at 20 mg/kg, po; type: organism-based; details: in vivo
Mus musculus [19] = assay: Toxicity in Balb/c mouse at 100 mg/kg, po; type: organism-based; details: in vivo
Mus musculus [20] = assay: as §1; type: ADME, organism-based; details: in vivo
Mus musculus [21] = assay: as §2; type: ADME, organism-based; details: in vivo

Row | SMILES | MIC90 [1] | MIC [2] | solubility at 4 h [4] | further results
1 | C[C@]1(COc2ccc(N3CCC(Oc4ccc(OC(F)(F)F)cc4)CC3)cc2)Cn2cc([N+](=O)[O-])nc2O1 | 0.007 µg/mL (≈ 0.0131 µM) | 0.37 µg/mL (≈ 0.692 µM) | – | CC50 at 24 h [3]: 108 µg/mL (≈ 201 µM)
2 | C[C@]1(COc2ccc(NC(=O)Nc3ccccc3F)cc2)Cn2cc([N+](=O)[O-])nc2O1 | 1.67 µg/mL (≈ 3.91 µM) | – | – | –
3 | C[C@]1(COc2ccc(S(=O)(=O)N3CCC(c4ccccc4)CC3)cc2)Cn2cc([N+](=O)[O-])nc2O1 | 0.67 µg/mL (≈ 1.34 µM) | – | – | –
4 | CCOc1ccc(NC(=O)Nc2ccc(OC[C@@]3(C)Cn4cc([N+](=O)[O-])nc4O3)cc2)cc1 | 0.5 µg/mL (≈ 1.1 µM) | 1 µg/mL (≈ 2.21 µM) | 6.66 µg/mL (≈ 14.7 µM) | CC50 at 24 h [3]: > 20 µg/mL; selectivity ratio [5]: > 80
5 | CC(C)(C)OC(=O)N1CCN(c2ccc(OC[C@@]3(C)Cn4cc([N+](=O)[O-])nc4O3)cc2)CC1 | 6.67 µg/mL (≈ 14.5 µM) | – | – | –
6 | C[C@]1(COc2ccc(S(=O)(=O)N3CCCC3)cc2)Cn2cc([N+](=O)[O-])nc2O1 | 1 µg/mL (≈ 2.45 µM) | – | – | –
7 | C[C@]1(COc2ccc(NC(=O)Nc3ccc(C(F)(F)F)cc3)cc2)Cn2cc([N+](=O)[O-])nc2O1 | 0.5 µg/mL (≈ 1.05 µM) | – | < 1 µg/mL | –
8 | COc1ccc(S(=O)(=O)N2CCN(c3ccc(OC[C@@]4(C)Cn5cc([N+](=O)[O-])nc5O4)cc3)CC2)cc1 | 0.5 µg/mL (≈ 0.944 µM) | – | < 1 µg/mL | –
9 | C[C@]1(COc2ccc(S(=O)(=O)N3CCN(c4cccc(Cl)c4)CC3)cc2)Cn2cc([N+](=O)[O-])nc2O1 | 0.83 µg/mL (≈ 1.55 µM) | – | – | –
10 | CC(C)(C)c1ccc(NC(=O)Nc2ccc(OC[C@@]3(C)Cn4cc([N+](=O)[O-])nc4O3)cc2)cc1 | 0.09 µg/mL (≈ 0.193 µM) | – | < 1 µg/mL | –
11 | CCc1ccc(NC(=S)Nc2ccc(OC[C@@]3(C)Cn4cc([N+](=O)[O-])nc4O3)cc2)cc1 | 1 µg/mL (≈ 2.2 µM) | – | – | –
12 | C[C@]1(COc2ccc(NC(=O)Nc3ccc(Cl)cc3)cc2)Cn2cc([N+](=O)[O-])nc2O1 | 0.25 µg/mL (≈ 0.563 µM) | 4 µg/mL (≈ 9.01 µM) | 6.66 µg/mL (≈ 15 µM) | CC50 at 24 h [3]: > 20 µg/mL; selectivity ratio [5]: > 80
13 | CCOC(=O)N1CCN(S(=O)(=O)c2ccc(OC[C@@]3(C)Cn4cc([N+](=O)[O-])nc4O3)cc2)CC1 | 4 µg/mL (≈ 8.07 µM) | – | – | –
14 | C[C@]1(COc2ccc(NC(=S)Nc3ccc(OC(F)(F)F)cc3)cc2)Cn2cc([N+](=O)[O-])nc2O1 | 0.25 µg/mL (≈ 0.491 µM) | – | < 1 µg/mL | –
15 | C[C@]1(COc2ccc(N3CCN(S(=O)(=O)c4ccccc4)CC3)cc2)Cn2cc([N+](=O)[O-])nc2O1 | 1 µg/mL (≈ 2 µM) | – | – | –
16 | Cc1ccc(S(=O)(=O)N2CCN(c3ccc(OC[C@@]4(C)Cn5cc([N+](=O)[O-])nc5O4)cc3)CC2)cc1 | 0.5 µg/mL (≈ 0.974 µM) | – | < 1 µg/mL | –

Row | SMILES | MIC90 [1] | MIC [2] | solubility at 4 h [4] | further results
17 | Cc1ccc(NC(=S)Nc2ccc(OC[C@@]3(C)Cn4cc([N+](=O)[O-])nc4O3)cc2)cc1 | 0.83 µg/mL (≈ 1.89 µM) | – | – | –
18 | C[C@]1(COc2ccc(NC(=O)Nc3ccc(OC(F)(F)F)cc3)cc2)Cn2cc([N+](=O)[O-])nc2O1 | 0.67 µg/mL (≈ 1.36 µM) | – | – | –
19 | C[C@]1(COc2ccc(S(=O)(=O)N3CCN(C(=O)c4ccccc4)CC3)cc2)Cn2cc([N+](=O)[O-])nc2O1 | 4 µg/mL (≈ 7.58 µM) | – | – | –
20 | Cc1ccc(NC(=O)Nc2ccc(OC[C@@]3(C)Cn4cc([N+](=O)[O-])nc4O3)cc2)cc1 | 0.21 µg/mL (≈ 0.496 µM) | – | < 1 µg/mL | –
21 | COc1ccc(NC(=O)Nc2ccc(OC[C@@]3(C)Cn4cc([N+](=O)[O-])nc4O3)cc2)cc1 | 2 µg/mL (≈ 4.55 µM) | – | – | –
22 | CC(C)(C)OC(=O)Nc1ccc(OC[C@@]2(C)Cn3cc([N+](=O)[O-])nc3O2)cc1 | 1.34 µg/mL (≈ 3.43 µM) | – | – | –
23 | COc1ccc(NC(=S)Nc2ccc(OC[C@@]3(C)Cn4cc([N+](=O)[O-])nc4O3)cc2)cc1 | 0.5 µg/mL (≈ 1.1 µM) | > 8 µg/mL | 8.66 µg/mL (≈ 19 µM) | CC50 at 24 h [3]: > 20 µg/mL; selectivity ratio [5]: > 80
24 | CCc1ccc(NC(=O)Nc2ccc(OC[C@@]3(C)Cn4cc([N+](=O)[O-])nc4O3)cc2)cc1 | 0.5 µg/mL (≈ 1.14 µM) | – | < 1 µg/mL | –
25 | C[C@]1(COc2ccc(S(=O)(=O)N3CCOCC3)cc2)Cn2cc([N+](=O)[O-])nc2O1 | 0.37 µg/mL (≈ 0.872 µM) | 1.34 µg/mL (≈ 3.16 µM) | 20 µg/mL (≈ 47.1 µM) | CC50 at 24 h [3]: > 20 µg/mL; selectivity ratio [5]: > 40; solubility at 4 h [6]: 20 µg/mL (≈ 47.1 µM); solubility at 4 h [7]: 20 µg/mL (≈ 47.1 µM); solubility at 4 h [8]: 20 µg/mL (≈ 47.1 µM); remaining at 0.5 h [9]: 99.3%; Cmax [10]: 640 ng/mL; AUC(0-t) [11]: 879 ng·h/mL; Tmax [12]: 0.5 h; half-life [13]: 1.99 h; Vd (Mus musculus [14]): 12.97 L/kg; CL/F [15]: 75.2 mL/min/kg; Activity [16]: 1.28 log10CFU; Activity (Mus musculus [17]): Non-toxic; Activity (Mus musculus [18]): Non-toxic; Activity (Mus musculus [19]): Non-toxic
26 | C[C@]1(COc2ccc(N3CCN(S(=O)(=O)c4ccc(C(F)(F)F)cc4)CC3)cc2)Cn2cc([N+](=O)[O-])nc2O1 | 0.25 µg/mL (≈ 0.44 µM) | – | < 1 µg/mL | –
27 | Cc1ccccc1NC(=O)Nc1ccc(OC[C@@]2(C)Cn3cc([N+](=O)[O-])nc3O2)cc1 | 1 µg/mL (≈ 2.36 µM) | – | – | –
28 | C[C@]1(COc2ccc(N3CCN(S(=O)(=O)c4ccc(F)cc4)CC3)cc2)Cn2cc([N+](=O)[O-])nc2O1 | 0.06 µg/mL (≈ 0.116 µM) | > 8 µg/mL | 8.33 µg/mL (≈ 16.1 µM) | CC50 at 24 h [3]: > 20 µg/mL; selectivity ratio [5]: > 333
29 | C[C@]1(COc2ccc(-n3cc(COc4ccc(OC(F)(F)F)cc4)nn3)cc2)Cn2cc([N+](=O)[O-])nc2O1 | 0.12 µg/mL (≈ 0.225 µM) | 4 µg/mL (≈ 7.51 µM) | < 1 µg/mL | CC50 at 24 h [3]: > 20 µg/mL; selectivity ratio [5]: > 166; solubility at 4 h [6]: < 1 µg/mL; solubility at 4 h [7]: < 1 µg/mL; solubility at 4 h [8]: < 1 µg/mL; remaining at 0.5 h [9]: 90.8%; Cmax [10]: 540 ng/mL; AUCt (Mus musculus [20]): 7428 ng·h/mL; Tmax [12]: 2 h; t1/2 (Mus musculus [21]): 4.01 h; Vd (Mus musculus [14]): 0.377 L/kg; Activity (Mus musculus [17]): Non-toxic; Activity (Mus musculus [18]): Non-toxic; Activity (Mus musculus [19]): Non-toxic
30 | C[C@]1(COc2ccc(S(=O)(=O)N3CCCCC3)cc2)Cn2cc([N+](=O)[O-])nc2O1 | 0.5 µg/mL (≈ 1.18 µM) | 10.7 µg/mL (≈ 25.3 µM) | 13.3 µg/mL (≈ 31.6 µM) | CC50 at 24 h [3]: > 20 µg/mL; selectivity ratio [5]: > 40
31 | COc1c(N2CCNC(C)C2)c(F)cc2c(=O)c(C(=O)O)cn(C3CC3)c12 (configuration not stated) [GATIFLOXACIN] | – | 1 µg/mL (≈ 2.66 µM) | – | –
32 | CO[C@H]1/C=C/O[C@@]2(C)Oc3c(C)c(O)c4c(O)c(c(/C=N/N5CCN(C)CC5)c(O)c4c3C2=O)NC(=O)/C(C)=C\C=C\[C@H](C)[C@H](O)[C@@H](C)[C@@H](O)[C@@H](C)[C@H](OC(C)=O)[C@@H]1C [RIFAMPIN] | 0.06 µg/mL (≈ 0.0729 µM) | 2 µg/mL (≈ 2.43 µM) | – | –
